Measured values reported in ChEMBL document CHEMBL1201861, “Genomics of Drug Sensitity in Cancer screening data, Wellcome Trust Sanger Institute”.

Key:
D-336MG = test: cells; type: functional, cell-based, Homo sapiens; settings: Homo sapiens, D-336MG
Description: SANGER: Inhibition of human D-336MG cell growth in a cell viability assay.

DMS-153 = test: cells; type: functional, cell-based, Homo sapiens; settings: Homo sapiens, DMS-153
Description: SANGER: Inhibition of human DMS-153 cell growth in a cell viability assay.

EW-12 = test: SANGER: Inhibition of human EW-12 cell growth in a cell viability assay.; type: functional, cell-based; settings: Homo sapiens, EW-12
GDM-1 = test: cells; type: functional, cell-based, Homo sapiens; settings: Homo sapiens, GDM-1; read-out: IC50;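 note: cell viability readout used to measure growth inhibition of human GDM-1 cells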
Description: SANGER: Inhibition of human GDM-1 cell growth in a cell viability assay.

IM-9 = test: SANGER: Inhibition of human IM-9 cell growth in a cell viability assay.; type: functional, cell-based; settings: Homo sapiens, IM-9
MHH-CALL-2 = test: cells; type: functional, cell-based, Homo sapiens; settings: Homo sapiens, MHH-CALL-2;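 note: growth inhibition of the cell line, read out in a cell viability assay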
Description: SANGER: Inhibition of human MHH-CALL-2 cell growth in a cell viability assay.

NCI-H748 = test: cells; type: functional, cell-based, Homo sapiens; settings: Homo sapiens, NCI-H748;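 note: growth inhibition of NCI-H748 cells, measured by a cell viability assay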
Description: SANGER: Inhibition of human NCI-H748 cell growth in a cell viability assay.

OPM-2 = test: cells; type: functional, cell-based, Homo sapiens; settings: Homo sapiens, OPM-2;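 note: growth of OPM-2 cells measured with a viability assay, IC50 for suppression of proliferation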
Description: SANGER: Inhibition of human OPM-2 cell growth in a cell viability assay.

RPMI 8402 = test: SANGER: Inhibition of human RPMI-8402 cell growth in a cell viability assay.; type: functional, cell-based; settings: Homo sapiens, RPMI 8402
SKM-1 = test: SANGER: Inhibition of human SKM-1 cell growth in a cell viability assay.; type: functional, cell-based; settings: Homo sapiens, SKM-1
SU-DHL-1 = test: SANGER: Inhibition of human SU-DHL-1 cell growth in a cell viability assay.; type: functional, cell-based; settings: Homo sapiens, SU-DHL-1
COLO-792 = test: cells; type: functional, cell-based; settings: Homo sapiens
Description: SANGER: Inhibition of human COLO-792 cell growth in a cell viability assay.

D-392MG = test: cells; type: functional, cell-based; settings: Homo sapiens
D-423MG = test: cells; type: functional, cell-based; settings: Homo sapiens
Description: SANGER: Inhibition of human D-423MG cell growth in a cell viability assay.

D-566MG = test: cells; type: functional, cell-based; settings: Homo sapiens
DoTc2-4510 = test: cells; type: functional, cell-based; settings: Homo sapiens
EGI-1 = test: cells; type: functional, cell-based; settings: Homo sapiens;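 note: cell viability readout used to gauge growth inhibition of EGI-1 cells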
Description: SANGER: Inhibition of human EGI-1 cell growth in a cell viability assay.

H-EMC-SS = test: cells; type: functional, cell-based; settings: Homo sapiens
Description: SANGER: Inhibition of human H-EMC-SS cell growth in a cell viability assay.

HCC1419 = test: cells; type: functional, cell-based; settings: Homo sapiens;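 note: growth inhibition of human HCC1419 cells, read out as cell viability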
Description: SANGER: Inhibition of human HCC1419 cell growth in a cell viability assay.

HT-1080 = test: cells; type: functional, cell-based; settings: Homo sapiens
Description: SANGER: Inhibition of human HT-1080 cell growth in a cell viability assay.

HuO-3N1 = test: cells; type: functional, cell-based; settings: Homo sapiens;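 note: cell viability readout used to measure how strongly compounds suppress proliferation of human HuO-3N1 cells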
Description: SANGER: Inhibition of human HuO-3N1 cell growth in a cell viability assay.

IGR-1 = test: cells; type: functional, cell-based; settings: Homo sapiens;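 note: growth inhibition of human IGR-1 cells, read out with a cell viability assay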
Description: SANGER: Inhibition of human IGR-1 cell growth in a cell viability assay.

KP-N-YN = test: cells; type: functional, cell-based; settings: Homo sapiens;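 note: growth inhibition of KP-N-YN cells, read out with a cell viability assay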
Description: SANGER: Inhibition of human KP-N-YN cell growth in a cell viability assay.

MHH-ES-1 = test: cells; type: functional, cell-based; settings: Homo sapiens
Description: SANGER: Inhibition of human MHH-ES-1 cell growth in a cell viability assay.

MOLT-13 = test: cells; type: functional, cell-based; settings: Homo sapiens;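 note: IC50 for suppression of MOLT-13 cell growth, read out with a cell viability assay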
Description: SANGER: Inhibition of human MOLT-13 cell growth in a cell viability assay.

NCI-H2029 = test: cells; type: functional, cell-based; settings: Homo sapiens;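 note: Read-out is a viability assay on the cultured cells, and IC50 is the concentration that suppresses cell growth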
Description: SANGER: Inhibition of human NCI-H2029 cell growth in a cell viability assay.

NCI-H2405 = test: cells; type: functional, cell-based; settings: Homo sapiens;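 note: growth inhibition of the human cell line, read out with a cell viability assay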
Description: SANGER: Inhibition of human NCI-H2405 cell growth in a cell viability assay.

NCI-H358 = test: cells; type: functional, cell-based; settings: Homo sapiens;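 note: growth inhibition of NCI-H358 human cells, read out with a cell viability assay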
Description: SANGER: Inhibition of human NCI-H358 cell growth in a cell viability assay.

NCI-H596 = test: cells; type: functional, cell-based; settings: Homo sapiens;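 note: growth inhibition of NCI-H596 cells, read out with a cell viability assay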
Description: SANGER: Inhibition of human NCI-H596 cell growth in a cell viability assay.

NCI-H727 = test: cells; type: functional, cell-based; settings: Homo sapiens;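 note: growth inhibition of human NCI-H727 cells, read out with a cell viability assay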
Description: SANGER: Inhibition of human NCI-H727 cell growth in a cell viability assay.

OC-314 = test: cells; type: functional, cell-based; settings: Homo sapiens
Description: SANGER: Inhibition of human OC-314 cell growth in a cell viability assay.

OVCAR-8 = test: cells; type: functional, cell-based; settings: Homo sapiens;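 note: growth inhibition of human OVCAR-8 cells, read out by a cell viability assay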
Description: SANGER: Inhibition of human OVCAR-8 cell growth in a cell viability assay.

RPMI-7951 = test: cells; type: functional, cell-based; settings: Homo sapiens
Description: SANGER: Inhibition of human RPMI-7951 cell growth in a cell viability assay.

RVH-421 = test: cells; type: functional, cell-based; settings: Homo sapiens
Description: SANGER: Inhibition of human RVH-421 cell growth in a cell viability assay.

SCC-25 = test: cells; type: functional, cell-based; settings: Homo sapiens;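 note: growth inhibition of SCC-25 cells, measured with a cell viability assay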
Description: SANGER: Inhibition of human SCC-25 cell growth in a cell viability assay.

SNU-449 = test: cells; type: functional, cell-based; settings: Homo sapiens
Description: SANGER: Inhibition of human SNU-449 cell growth in a cell viability assay.

A673 = test: cells; type: functional, cell-based; settings: Homo sapiens;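 note: growth inhibition of human A673 cells, read out through a cell viability assay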
Description: SANGER: Inhibition of human A673 cell growth in a cell viability assay.

BHT-101 = test: cells; type: functional, cell-based; settings: Homo sapiens
Description: SANGER: Inhibition of human BHT-101 cell growth in a cell viability assay.

BPH-1 = test: cells; type: functional, cell-based; settings: Homo sapiens;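 note: cell viability assay measuring growth inhibition of human BPH-1 cells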
Description: SANGER: Inhibition of human BPH-1 cell growth in a cell viability assay.

BT-549 = test: cells; type: functional, cell-based; settings: Homo sapiens
Description: SANGER: Inhibition of human BT-549 cell growth in a cell viability assay.

TI-73 = test: cells; type: functional, cell-based; settings: Homo sapiens;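 note: cell viability assay measuring how much compounds suppress growth of the cultured cell line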
Description: SANGER: Inhibition of human TI-73 cell growth in a cell viability assay.

U-251 = test: cells; type: functional, cell-based; settings: Homo sapiens;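 note: growth inhibition of human U-251 cells, read out through a cell viability assay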
Description: SANGER: Inhibition of human U251 cell growth in a cell viability assay.

ZR-75-30 = test: cells; type: functional, cell-based; settings: Homo sapiens;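 note: growth inhibition of ZR-75-30 cells, measured with a cell viability readout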
Description: SANGER: Inhibition of human ZR-75-30 cell growth in a cell viability assay.

CFPAC-1 = test: cells; type: functional, cell-based; settings: Homo sapiens;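 note: cell viability readout used to gauge suppression of CFPAC-1 cell proliferation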
Description: SANGER: Inhibition of human CFPAC-1 cell growth in a cell viability assay.

COLO-679 = test: cells; type: functional, cell-based; settings: Homo sapiens
Description: SANGER: Inhibition of human COLO-679 cell growth in a cell viability assay.

UACC-812 = test: cells; type: functional, cell-based; settings: Homo sapiens
Description: SANGER: Inhibition of human UACC-812 cell growth in a cell viability assay.

C=CC(=O)N1CCCC(Nc2nc(Nc3ccc(N(C)C(=O)CC)cc3)nc3[nH]cnc23)C1 (stereo not drawn)
IC50 (D-336MG): 8000 nM | IC50 (DMS-153): > 10200 nM | IC50 (EW-12): > 10200 nM | IC50 (GDM-1): > 10200 nM | IC50 (IM-9): > 10200 nM | IC50 (MHH-CALL-2): > 10200 nM | IC50 (NCI-H748): > 10200 nM | IC50 (OPM-2): > 10200 nM | IC50 (RPMI 8402): > 10200 nM | IC50 (SKM-1): > 10200 nM | IC50 (SU-DHL-1): > 10200 nM

COc1ccc(N(C(=O)Oc2c(C)cccc2C)c2ccnc(Nc3ccc(N4CCN(C)CC4)cc3)n2)c(OC)c1
IC50 (D-336MG): 46.8 nM | IC50 (DMS-153): > 5120 nM | IC50 (EW-12): > 5120 nM | IC50 (GDM-1): > 5120 nM | IC50 (IM-9): > 5120 nM | IC50 (MHH-CALL-2): > 5120 nM | IC50 (NCI-H748): > 5120 nM | IC50 (OPM-2): > 5120 nM | IC50 (RPMI 8402): > 5120 nM | IC50 (SKM-1): > 5120 nM | IC50 (SU-DHL-1): > 5120 nM

O=C1NC(=O)c2c1c(-c1ccccc1Cl)cc1[nH]c3ccc(O)cc3c21
IC50 (COLO-792): > 2000 nM | IC50 (D-336MG): > 2000 nM | IC50 (D-392MG): > 2000 nM | IC50 (D-423MG): > 2000 nM | IC50 (D-566MG): > 2000 nM | IC50 (DoTc2-4510): > 2000 nM | IC50 (EGI-1): > 2000 nM | IC50 (H-EMC-SS): > 2000 nM | IC50 (HCC1419): > 2000 nM | IC50 (HT-1080): 1200 nM | IC50 (HuO-3N1): > 2000 nM | IC50 (IGR-1): > 2000 nM | IC50 (KP-N-YN): > 2000 nM | IC50 (MHH-ES-1): > 2000 nM | IC50 (MOLT-13): > 2000 nM | IC50 (NCI-H2029): > 2000 nM | IC50 (NCI-H2405): > 2000 nM | IC50 (NCI-H358): > 2000 nM | IC50 (NCI-H596): > 2000 nM | IC50 (NCI-H727): > 2000 nM | IC50 (OC-314): > 2000 nM | IC50 (OVCAR-8): 1180 nM | IC50 (RPMI-7951): > 2000 nM | IC50 (RVH-421): > 2000 nM | IC50 (SCC-25): > 2000 nM | IC50 (SNU-449): > 2000 nM | IC50 (A673): > 2000 nM | IC50 (BHT-101): > 2000 nM | IC50 (BPH-1): 1070 nM | IC50 (BT-549): > 2000 nM | IC50 (TI-73): > 2000 nM | IC50 (U-251): > 2000 nM | IC50 (ZR-75-30): > 2000 nM | IC50 (CFPAC-1): > 2000 nM | IC50 (COLO-679): > 2000 nM

Cc1cc(N2CCOCC2)cc2[nH]c(-c3c(NC[C@@H](O)c4cccc(Cl)c4)cc[nH]c3=O)nc12
IC50 (D-336MG): 872 nM | IC50 (DMS-153): > 5120 nM | IC50 (EW-12): > 5120 nM | IC50 (GDM-1): > 5120 nM | IC50 (IM-9): > 5120 nM | IC50 (MHH-CALL-2): > 5120 nM | IC50 (MOLT-13): > 5120 nM | IC50 (NCI-H748): > 5120 nM | IC50 (OPM-2): 525 nM | IC50 (RPMI 8402): > 5120 nM | IC50 (SKM-1): > 5120 nM | IC50 (SU-DHL-1): > 5120 nM

NC(=O)c1cccc(-c2cc(Nc3ccc(OC(F)(F)F)cc3)ncn2)c1
IC50 (D-336MG): > 1280 nM | IC50 (DMS-153): > 1280 nM | IC50 (EW-12): > 1280 nM | IC50 (GDM-1): > 1280 nM | IC50 (IM-9): > 1280 nM | IC50 (MHH-CALL-2): > 1280 nM | IC50 (NCI-H748): > 1280 nM | IC50 (OPM-2): > 1280 nM | IC50 (RPMI 8402): > 1280 nM | IC50 (SKM-1): > 1280 nM | IC50 (SU-DHL-1): > 1280 nM

CC(C)C[C@H](NC(=O)[C@H](Cc1ccccc1)NC(=O)c1cnccn1)B(O)O [BORTEZOMIB]
IC50 (D-336MG): 0.657 nM | IC50 (D-392MG): 1.1 nM | IC50 (DMS-153): > 20 nM | IC50 (EW-12): > 20 nM | IC50 (GDM-1): 6.77 nM | IC50 (IM-9): > 20 nM | IC50 (MHH-CALL-2): > 20 nM | IC50 (NCI-H748): 2.39 nM | IC50 (OPM-2): 1.33 nM | IC50 (RPMI 8402): 3.5 nM | IC50 (SKM-1): > 20 nM | IC50 (SU-DHL-1): 7.24 nM | IC50 (UACC-812): > 20 nM
